# Experimental data published in patent publication US20130022640A1, “IMMUNE MODULATORS RELATING TO FOXO3A” (Secretary, Department of Health and Human Services, priority 2010, published 2013).
# Legend:
# TcR-I T cells [1] = experiment: ELISPOT (IFN-γ, granzyme B) of TcR-I T cells re-isolated from treated TRAMP mice; assay type: in vivo, mouse
# Description: (§1) Lymph node (LN) cells from TcR-I mice were prepared in a single-cell suspension. Cell numbers were adjusted to 3×10^6 TcR-I cells to be transferred intravenously (i.v.) into recipient mice. In some experiments, inhibitors to IDO (1-methly-D-tryptophan, 1MDT) and arginase ((S) 2-bronoethyl)-L-cysteine (BEC)) were added to the drinking water every 3 days (5 μg/ml).
# (§2) A blocking anti-PD-1 antibody (Ab) (clone RMP1-14) (Yamazaki et al., J. Immunol., 175: 1586-1592 (2005)) was administered by intraperitoneal (i.p.) injection on days 0, 1, and 3 with respect to adoptive transfer of TcR-I T cells (250 μg/injection). Anti-TGF-β Ab was injected i.p. on days −1,0,1 and 2 with respect to TcR-I transfer (500 μg/injection). Anti-CD317 Ab (5 μg) (kindly provided by Dr. Marco Colonna) was injected i.p. on days −1 and 0 with respect to TcR-I transfer (Blasius et al., J. Immunol., 177: 3260-3265 (2006)).
# Multiscreen plates (Millipore, Billerica, Mass.) were coated with 100 μl of capture Ab (R&D Systems Inc., Minneapolis, Minn.) overnight at 4° C. IFN-γ (1×10^5) or granzyme B (2×10^4) purified Thy 1.1^+ TcR T cells were added to increasing concentrations of TAg560-568. After incubation, plates were washed and processed as previously described (Shafer-Weaver et al., Cancer Research, 69: 6256-6264 (2009)).
# It was next determined whether in vivo depletion of TADCs enhanced TcR-I effector function. TADCs were depleted via i.p. injection of anti-CD317 Ab into TRAMP mice. TcR-I T cells were then transferred into TRAMP mice with or without DC depletion. T cells were re-isolated on days 6 (FIGS. 3A and 3B) or 12 (FIGS. 3C and 3D) after transfer to assess CTL effector function.
# Selective amino acid catabolism is a previously-described mechanism of immune dysfunction in cancer (Bronte et al., J. Exp. Med., 201: 1257-1268 (2005); Sharma et al., J. Clin. Invest., 117: 2570-2582 (2007); Srivastava et al., Cancer Res., 70: 68-77 (2010)). […]
# TRAMP mice = experiment: UGT and prostate weights (tumor burden) after TcR-I transfer; assay type: in vivo, mouse; conditions: day 12 after TcR-I transfer, vs control/untreated
# Description: as §1, §2
# Control antibody or anti-CD317 antibody was injected i.p. into TRAMP mice on days −1 and 0 relative to T cell transfer. Weights of total urogenital tract (UGT) and dissected prostates were obtained at day 12. […]
# Given the enhanced effector functions seen following inhibitory molecule blockade, the effect of blocking these suppressive mediators on anti-tumor immunity was tested. […] UGT weights (FIG. 7A) and prostate weights (FIG. 7B) were assessed on day 12 after TcR-I transfer.
# TcR-I T cells [2] = experiment: In vitro suppressor assay after 4 day culture of TcR-I T cells with TRAMP DC and blocking agents; assay type: cell-based, mouse; conditions: TRAMP DC + agent
# Description: (§3) Naïve TcR-I T cells were co-cultured with DC for 72 hours. TcR-I cells were then re-isolated via negative selection with magnetic beads. To assess tolerance, TcR-I T cells were subjected to secondary stimulation with normal splenocytes and TAg. After 48 hours, wells were pulsed with 1 μCi [^3H] thymidine (Amersham, Buckinghamshire, England) for 12 hours. To assess suppressor activity, graded numbers of TcR-I T cells were added to 1×10^4 responder 37B7 TRP-2-specific T cells (Singh et al., J. Immunother., 32: 129-139 (2009)), 1×10^5 splenocytes, and 5 μM TRP-2, and incubated for 72 h at 37° C. One μCi of [^3H] thymidine per well was added for an additional 16 h and harvested as described above.
# (§4) To investigate the effects of blocking IDO in vitro, 1MDT was also added to purified DC cultures to inhibit IDO activity during DC stimulation of TcR-I proliferation (FIG. 6A). Tolerance was assessed by testing secondary stimulation 4 days after primary culture with 1 MDT, a blocking agent to suppressive mediator IDO (FIG. 6D).
# (§5) To investigate the effects of blocking PD-1 in vitro, anti-PD-1 antibody was added to cultures of TcR-I T cells and TRAMP or WT prostate DCs. Tolerance was assessed by testing secondary stimulation 4 days after primary culture with blocking agents, including anti-PD-1 antibody, to suppressive mediators (FIG. 6D). Suppressor activity was also measured after 4 day culture with blocking agents, including anti-PD-1 antibody, and the results are shown in Table 9.
# TcR-I T cells [3] = experiment: In vitro TcR-I proliferation and tolerance with TRAMP DCs and blocking agents; assay type: cell-based, mouse
# Description: Naïve TcR-I T cells were used as responder cells in a proliferation assay; 2×10^4 T cells were stimulated with antigen and 2×10^4 isolated prostatic DCs. After 72 h of culture, wells were pulsed with 1 μCi [^3H] thymidine (Amersham, Buckinghamshire, England) for 16 h. The cells were then harvested using a Cell Harvester (Tomtec, Hamden, Conn.) and radioactivity was measured in a Liquid Scintillation Counter (WALLAC MICROBETA™ TriLux, PerkinElmer, Waltham, Mass.).
# as §3, with “To assess suppressor activity, graded numbers of TcR-I T cells were added to 1×10^4 responder 37B7 TRP-2-specific T cells (Singh et al., J. Immunother., 32: 129-139 (2009)), 1×10^5 splenocytes, and 5 μM TRP-2, and incubated for 72 h at 37° C.” left out
# as §4
# as §5, with “6D).” for “6D). Suppressor activity was also measured after 4 day culture with blocking agents, including anti-PD-1 antibody, and the results are shown in Table 9.”
# [4] = 6 days after transfer into TRAMP mice, vs untreated/control Ab
SMILES,IFN-γ secretion by TcR-I T cells (TcR-I T cells [1]; [4]),granzyme B secretion by TcR-I T cells (TcR-I T cells [1]; [4]),"TcR-I T cell antigen responsiveness (TcR-I T cells [1]; day 12 after transfer / 12 days of treatment, TRAMP mice)",prostate weight (TRAMP mice),total urogenital tract (UGT) weight (TRAMP mice),% Suppression for Each Source of Primary Stimulation (TcR-I T cells [2]; Suppressor:Responder 1:1) [%],% Suppression for Each Source of Primary Stimulation (TcR-I T cells [2]; Suppressor:Responder 1:2) [%],% Suppression for Each Source of Primary Stimulation (TcR-I T cells [2]; Suppressor:Responder 1:4) [%],% Suppression for Each Source of Primary Stimulation (TcR-I T cells [2]; Suppressor:Responder 2:1) [%],"TADC-stimulated TcR-I proliferation (TcR-I T cells [3]; agent added to in vitro culture, primary stimulation)",tolerization of TcR-I T cells during co-culture (TcR-I T cells [3]; secondary stimulation 4 days after primary culture with agent),TcR-I responsiveness (block of in vitro tolerization) (TcR-I T cells [3]; blocking ARG in vitro)
"Cn1cc(C[C@@H](N)C(=O)O)c2ccccc21 [1MDT, 1-methyl-D-tryptophan]",significantly increased,significantly increased,loss of antigen responsiveness,statistically significant decrease,statistically significant decrease,20,15,8,30,enhanced,did not prevent them from becoming tolerized,–
N=C(NO)NCC[C@H](N)C(=O)O [Nor-NOHA],–,–,–,–,–,–,–,–,–,–,–,did not enhance TcR-I responsiveness
